The nature of data set [1]: Long-term plasma exposure after a single SC ANA dose (56-day follow-up), plasma LC-MS/MS. The format is in vivo, Sprague-Dawley rats. The note with it: for AUC(0-inf) / AUC(0-t) / half-life / Cmax / Tmax: Sprague-Dawley, rat, male SD rats, n = 5, 56-day follow-up; for Cmax: read-out: Cmax; for Tmax: read-out: Tmax. Here is the method: To monitor the sustained release of SC ANA in the long term, 10 male SD rats were treated with a single dose of either 7.0 mg/kg (n = 5) or 35.0 mg/kg (n = 5). The rats were purchased from SPF Biotechnology Co. Ltd. (Beijing, China). Animals were acclimated to the test facility for at least three days, during which their general health was checked by veterinary staff or other authorized personnel. Animals were kept in polycarbonate cages containing absorbent corncob bedding, with a maintained temperature range of +20-25 °C and a 12-h light/dark cycle. Animals had access to food and drinking water ad libitum during acclimation and the experiment. At the end of the study, the rats were euthanized by exposure to an increasing concentration of CO2. […] The SC formulation was prepared by dissolving micronized ANA (5 μm particle size) in an oily triglyceride ester of saturated caprylic and capric fatty acids and glycerol (Miglyol® 810 N, IOI Oleo GmbH, Hamburg, Germany). […] To evaluate plasma concentration-time profiles, blood samples were collected from the jugular vein in EDTA tubes and stored at -70 °C until further analysis. […] In the second PK analysis in rats with a longer follow-up time, blood samples were collected at 0, 30 min, 1 […], and 56 d after dosage. SD rat plasma was analyzed for ANA, 3-OH-ANA, and RL603 concentrations by Pharmaron (Beijing, China). ANA, 3-hydroxy-anagrelide (CAS No. 733043-41-9, Cat. No. sc-206647, Santa Cruz Biotechnology, Inc., Dallas, TX), and RL603 (CAS No. 327602-34-6, Cat. No. sc-391661, Santa Cruz Biotechnology, Inc., Dallas, TX) were used as reference items in calibration standards and quality control (QC) samples. The HPLC and the MS/MS (LCMS-8060) instruments were both from SHIMADZU (Kyoto, Japan), and the column used was a Raptor Biphenyl column (2.7 μm, 50 × 2.1 mm, Restek, Bellefonte, PA). The desired serial concentrations of working solutions were achieved by diluting analyte stock solution with 50% acetonitrile in water. […] QC samples at 0.5, 1, 2, 50, and 800 ng/mL were prepared independently of those used for the calibration curves. These QC samples were prepared on the day of analysis in the same way as calibration standards. Carbamazepine (CAS No. 298-46-4, Sigma-Aldrich, St. Louis, MO) was used as an internal standard for all analytes. Altogether, 55 μL of standards, 55 μL of QC samples, and 55 μL of test samples (comprising 50 μL of plasma and 5 μL of blank solution) were added to 200 μL of acetonitrile containing an internal standard mixture to precipitate protein. The samples were then vortexed for 30 seconds. After centrifugation at 4000 × g (+4 °C) for 5 min, the supernatant was diluted threefold with water, and 2 μL of the diluted supernatant was injected into the LC/MS/MS system for quantitative analysis. The transitions were 256.00-198.90 m/z for anagrelide hydrochloride, 272.00-198.95 m/z for 3-hydroxy anagrelide, 216.00-198.95 m/z for RL603, and 237.20-194.10 m/z for carbamazepine. […] Plasma drug concentration-time profiles were drawn by the average plasma concentrations at specific time points using Microsoft Excel (Redmond, WA). […] Certara, Princeton, NJ) software. Averages of each variable were used when PK values were compared.

Data set [2] is described as follows: Tolerability (body weight, well-being) during the UZLX-GIST2B efficacy experiment. The method, then: Before and during the treatments, tumor volumes (mm^3) were determined by three dimensional measurements (x × y × z) with a digital caliper. The treatments started after tumors reached an average volume between 150 and 300 mm^3, followed by randomizing the mice to the four treatment groups with an even tumor volume distribution per group. PO-treated mice received 2.5 mg/kg of ANA BID. Mice in the control group were injected with 50 µL of miglyol vehicle, and mice receiving SC ANA were injected Q4D with 35 mg/kg or 70 mg/kg into the loose skin between the shoulder blades (days 1, 5, and 9). During the experiment, tumor volumes were measured on days 1, 4, 8, and 11. In addition, animal well-being was visually monitored, and body weights were measured every day. Absolute tumor volume changes between the first and last days were considered as one of the measurements of treatment efficacy. […] Tumors were collected, weighed, and snap-frozen in liquid nitrogen, and livers of the mice were evaluated by visual inspection.
Statistical analyses were performed using IBM SPSS Statistics 28.0.0.0 (Chicago, IL). p Values below .05 were considered statistically significant. Statistical significance of body weights, tumor volumes, and tumor weights between the treatment groups was analyzed using the independent samples Kruskal–Wallis test and Dunn’s pairwise tests adjusted with Bonferroni’s correction. […]

The next data set has as its system UZLX-GIST2B. Also on record: method as in Pulkka et al., 2019. The note with it: 5 mg/kg PO BID, in 11 days; ref Pulkka et al., 2019; cited from earlier work.
The conditions of data set [3]: Petrides et al., 2009, 2018, cited from earlier work.
[4] abbreviates: analyte in plasma after single SC ANA dose 7 mg/kg.
The mark [5] stands for this setting: analyte in plasma after single SC ANA dose 35 mg/kg.

Read-outs that look alike come from different tables or passages of the source.

Turning to `O=C1CN2Cc3c(ccc(Cl)c3Cl)N=C2N1` [Anagrelide, imidazo‐[2,1‐b] quinazolin‐2[3H]‐one, 6,7‐dichloro‐1,5‐dihydro, monohydro‐chloride], in data set [1] (setting [4]), the AUC(0-inf) was found to be 1.57 ± 0.388 µg·h/mL, the exposure AUC(0-t) is 1.46 ± 0.148 µg·h/mL, the half-life was 293 h and the Cmax is 0.00678 ± 0.00186 µg/mL. Further, the Tmax in data set [1] (setting [4]) came to 1 h. Also, in data set [1] (setting [5]), the AUC(0-inf) turned out to be 9.48 ± 5.27 µg·h/mL, the exposure AUC(0-t) is 6.35 ± 0.666 µg·h/mL, the half-life was 336 h and the Cmax was found to be 0.0218 ± 0.00862 µg/mL. Moreover, in data set [1] (setting [5]), the Tmax is 2.2 ± 1.64 h. In data set [1] (single SC administration in rats (7 or 35 mg/kg)), the “time plasma concentrations were detected after a single administration” value was “up to 56 days”. Also, the relative body weight entry in data set [2] (2.5 mg/kg PO BID, 11 days, still in the acceptable range, p = .016) is “significantly lower relative body weights”. For the same compound, the “finding at the injection site” value in data set [2] (35 or 70 mg/kg SC Q4D in miglyol) was “drug precipitates near the injection site”. Further, the “tumor response in the same PDX model” value in the data set with UZLX-GIST2B is given as “significant tumor regression”. Also, the “time of peak plasma concentration” value in data set [3] (after PO drug administration, ref Gaver et al., 1981) is given as “approximately one hour”. Besides, the bioavailability result in data set [3] (taken orally, ref Spencer & Brogden, 1994) was “approximately 70%”.

In general, AUC(0-inf) refers to the area under the concentration-time curve extrapolated to infinity. A low value points to low exposure. For orientation: AUC(0-t) means exposure summed from dosing to a finite time, without extrapolation to infinity. Usually half-life stands for the time in which the quantity being followed falls by half. The Cmax is the maximum level reached in the sampled fluid or tissue. As usually defined, the Tmax is the time from dosing to the highest level.
